25 molecules from patent US20250288573A1 (H. LEE MOFFITT CANCER CENTER AND RESEARCH INSTITUTE, INC., priority 2018, published 2025) can be followed below.

Where two headings read alike, the source gives them in different places.

The experiment deals with T1, CRBN (Homo sapiens, UniProt Q96SW2).
T1 construct: endogenous in cells; host or cells: primary human T cells / CD8+ T cells from peripheral blood
The experiment in a line: Western blot for expression of CRBN relative to vinculin in human T cells (CRBN degradation). Type of experiment: cell-based. Conditions: for remaining activity at 10 µM / remaining activity at 0.01 µM: read-out: Relative Density of CRBN (% of DMSO); for remaining activity at 0.01 µM: 24 h; for CRBN Degradation ** (WB): grade (+) to (++++) or words, key not given. An excerpt: Bortez=bortezomib; MG132=proteasome inhibitor; MLN4924=NEDD8 inhibitor.
This assay is a standard Western blot assay for expression of CRBN relative to vinculin.
[…] 0.1 percent DMSO was used as a vehicle control.

T1 sequence (Q96SW2 whole entry): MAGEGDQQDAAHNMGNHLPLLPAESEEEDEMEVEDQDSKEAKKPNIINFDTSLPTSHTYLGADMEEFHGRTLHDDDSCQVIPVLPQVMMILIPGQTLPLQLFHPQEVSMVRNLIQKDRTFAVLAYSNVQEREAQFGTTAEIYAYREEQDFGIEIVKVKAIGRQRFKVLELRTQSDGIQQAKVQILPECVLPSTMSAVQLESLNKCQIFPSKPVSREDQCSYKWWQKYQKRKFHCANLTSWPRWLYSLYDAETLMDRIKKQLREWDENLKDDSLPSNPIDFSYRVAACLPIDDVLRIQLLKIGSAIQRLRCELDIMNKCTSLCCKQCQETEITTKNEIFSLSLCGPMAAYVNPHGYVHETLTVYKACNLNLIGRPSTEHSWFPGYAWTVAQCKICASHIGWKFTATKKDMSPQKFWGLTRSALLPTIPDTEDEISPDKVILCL

Regarding `Cc1nc2cccc(NC(=O)CCCCCCCCC(=O)Nc3cccc4nc(C)n(C5CCC(=O)NC5=O)c(=O)c34)c2c(=O)n1C1CCC(=O)NC1=O` (stereo not shown) [MA10-090, N1,N10-bis(3-(2,6-Dioxopiperidin-3-yl)-2-methyl-4-oxo-3,4-dihydroquinazolin-5-yl)decanediamide], under “10uM”, the remaining activity at 10 µM stood at 82.2%. Besides, the remaining activity at 0.01 µM (10nM, human T cells, 24 hours) worked out at 132%.

Consider `O=C1CCC(N2Cc3ccc(NC(=O)CCCCCCC(=O)Nc4ccc5c(c4)C(=O)N(C4CCC(=O)NC4=O)C5)cc3C2=O)C(=O)N1` (stereo not shown) [EC2-063, N^1,N^8-bis(2-(2,6-Dioxopiperidin-3-yl)-3-oxoisoindolin-5-yl)octanediamide], for which the remaining activity at 10 µM (10uM) came to 13.5%. Also, under “10nM, human T cells, 24 hours”, the remaining activity at 0.01 µM was determined as 38.8%. The corresponding values for `O=C1CCC(NC(=O)CCCCCCC(=O)NC2CCC(=O)NC2=O)C(=O)N1` (stereo not shown) [XS01-093, N^1,N^8-Bis(2,6-dioxopiperidin-3-yl)octanediamide] are 133% and 116%. The corresponding values for `O=C1CCC(NC(=O)CCCC(=O)NC2CCC(=O)NC2=O)C(=O)N1` (stereo not shown) [XS01-095, N^1,N^5-Bis(2,6-dioxopiperidin-3-yl)glutaramide] are 104% and 84.6%. The corresponding values for `O=C1CCC(N2C(=O)c3cccc(NC(=O)CCc4cn(CC(=O)Nc5cccc6c5C(=O)N(C5CCC(=O)NC5=O)C6=O)nn4)c3C2=O)C(=O)N1` (stereo not shown) [XS01-126, N-(2-(2,6-Dioxopiperidin-3-yl)-1,3-dioxoisoindolin-4-yl)-3-(1-(2-((2-(2,6-dioxopiperidin-3-yl)-1,3-dioxoisoindolin-4-yl)amino)-2-oxoethyl)-1H-1,2,3-triazol-4-yl)propanamide] are 131% and 207%. For the molecule `Cc1nc2cccc(CCc3ccc(CCc4cccc5nc(C)n(C6CCC(=O)NC6=O)c(=O)c45)cc3)c2c(=O)n1C1CCC(=O)NC1=O` (stereo not shown) [XS01-038, 3,3′-((1,4-Phenylenebis(ethane-2,1-diyl))bis(2-methyl-4-oxoquinazoline-5,3(4H)-diyl))bis(piperidine-2,6-dione)], the “CRBN Degradation ** (WB)” value is recorded as “No degradation”. Also, under “10uM”, the remaining activity at 10 µM is 133%. Moreover, the remaining activity at 0.01 µM (10nM, human T cells, 24 hours) amounted to 29%. Take `Cc1nc2cccc(NCc3ccc(CNc4cccc5nc(C)n(C6CCC(=O)NC6=O)c(=O)c45)cc3)c2c(=O)n1C1CCC(=O)NC1=O` (stereo not shown) [MA10-112]: the remaining activity at 10 µM (10uM) came out at 21.4%. The remaining activity at 0.01 µM (10nM, human T cells, 24 hours) is 5.13%. In the case of `CN1C(=O)CCC(N2Cc3c(CCCOCCOCCCc4cccc5c4CN(C4CCC(=O)N(C)C4=O)C5=O)cccc3C2=O)C1=O` (stereo not shown) [SM3-104, 3,3′-(((Ethane-1,2-diylbis(oxy))bis(propane-3,1-diyl))bis(1-oxoisoindoline-4,2-diyl))bis(1-methylpiperidine-2,6-dione)], the remaining activity at 0.01 µM (10nM, human T cells, 24 hours) was determined as 92.1%.

For the molecule `Cc1nc2cccc(NC(=O)CCCCCC(=O)Nc3cccc4nc(C)n(C5CCC(=O)NC5=O)c(=O)c34)c2c(=O)n1C1CCC(=O)NC1=O` (stereo not shown) [MA10-121, N1,N7-bis(3-(2,6-Dioxopiperidin-3-yl)-2-methyl-4-oxo-3,4-dihydroquinazolin-5-yl)heptanediamide], the remaining activity at 10 µM (10uM) stood at 72.6%. The remaining activity at 0.01 µM (10nM, human T cells, 24 hours) came out at 56.5%. As to `O=C1CCC(N2Cc3ccc(NC(=O)CCCC(=O)Nc4ccc5c(c4)C(=O)N(C4CCC(=O)NC4=O)C5)cc3C2=O)C(=O)N1` (stereo not shown) [EC2-060, N^1,N^5-bis(2-(2,6-Dioxopiperidin-3-yl)-3-oxoisoindolin-5-yl)glutaramide], the “CRBN Degradation ** (WB)” value was “No degradation”. For the same molecule, for the setting “10uM”, the remaining activity at 10 µM amounted to 40.3%. For the same molecule, the remaining activity at 0.01 µM (10nM, human T cells, 24 hours) is 48.4%. On to `Cc1nc2cccc(NC(=O)CCCCCCC(=O)Nc3cccc4nc(C)n(C5CCC(=O)NC5=O)c(=O)c34)c2c(=O)n1C1CCC(=O)NC1=O` (stereo not shown) [MA10-077, N1,N8-bis(3-(2,6-dioxopiperidin-3-yl)-2-methyl-4-oxo-3,4-dihydroquinazolin-5-yl)octanediamide], for which, where the note is “10uM”, the remaining activity at 10 µM came to 74.3%. The remaining activity at 0.01 µM (10nM, human T cells, 24 hours) was found to be 139%.

For the molecule `Cc1nc2cccc(CCCOCCOCCCc3cccc4nc(C)n(C5CCC(=O)NC5=O)c(=O)c34)c2c(=O)n1C1CCC(=O)NC1=O` (stereo not shown) [MA10-120, 3,3′-(((Ethane-1,2-diylbis(oxy))bis(propane-3,1-diyl))bis(2-methyl-4-oxoquinazoline-5,3(4H)-diyl))bis(piperidine-2,6-dione)], the remaining activity at 0.01 µM turned out to be 56.7% and the remaining activity at 10 µM was 82.8%. For the molecule `O=C1CCC(N2Cc3c(NC(=O)CCCc4cn(CC(=O)Nc5cccc6c5C(=O)N(C5CCC(=O)NC5=O)C6=O)nn4)cccc3C2=O)C(=O)N1` (stereo not shown) [XS01-122, 4-(1-(2-((2-(2,6-Dioxopiperidin-3-yl)-1,3-dioxoisoindolin-4-yl)amino)-2-oxoethyl)-1H-1,2,3-triazol-4-yl)-N-(2-(2,6-dioxopiperidin-3-yl)-1-oxoisoindolin-4-yl)butanamide], under “10uM”, the remaining activity at 10 µM is 151%. Further, the remaining activity at 0.01 µM (10nM, human T cells, 24 hours) was found to be 255%. With `O=C1CCC(N2Cc3ccc(NC(=O)CCCCC(=O)Nc4ccc5c(c4)C(=O)N(C4CCC(=O)NC4=O)C5)cc3C2=O)C(=O)N1` (stereo not shown) [EC2-066], the remaining activity at 10 µM (10uM) was 189%. On to `Cc1nc2cccc(NC(=O)CCc3cn(CC(=O)Nc4cccc5nc(C)n(C6CCC(=O)NC6=O)c(=O)c45)nn3)c2c(=O)n1C1CCC(=O)NC1=O` (stereo not shown) [XS01-132, N-(3-(2,6-dioxopiperidin-3-yl)-2-methyl-4-oxo-3,4-dihydroquinazolin-5-yl)-3-(1-(2-((3-(2,6-dioxopiperidin-3-yl)-2-methyl-4-oxo-3,4-dihydroquinazolin-5-yl)amino)-2-oxoethyl)-1H-1,2,3-triazol-4-yl)propanamide], for which, where the note is “10uM”, the remaining activity at 10 µM is 98.3%. The remaining activity at 0.01 µM (10nM, human T cells, 24 hours) was 199%.

Take `O=C1CCC(N2Cc3c(NC(=O)CCCc4cn(CC(=O)Nc5cccc6c5CN(C5CCC(=O)NC5=O)C6=O)nn4)cccc3C2=O)C(=O)N1` (stereo not shown) [XS01-109, N-(2-(2,6-Dioxopiperidin-3-yl)-1-oxoisoindolin-4-yl)-4-(1-(2-((2-(2,6-dioxopiperidin-3-yl)-1-oxoisoindolin-4-yl)amino)-2-oxoethyl)-1H-1,2,3-triazol-4-yl)butanamide]: the remaining activity at 10 µM (10uM) was 132%. The remaining activity at 0.01 µM (10nM, human T cells, 24 hours) came out at 213%. The corresponding values for `O=C1CC[C@H](N2Cc3c(CCCOCCOCCCc4cccc5c4CN([C@H]4CCC(=O)NC4=O)C5=O)cccc3C2=O)C(=O)N1` [XS01-011, (3S,3'S)-3,3′-(((Ethane-1,2-diylbisbis(oxy))bisbis(propane-3,1-diyl))bisbis(1-oxoisoindoline-4,2-diyl))bisbis(piperidine-2,6-dione)] are 38.1% and 3.42%. The matching figures for `Cc1nc2cccc(NC(=O)CCCCCCCC(=O)Nc3cccc4nc(C)n(C5CCC(=O)NC5=O)c(=O)c34)c2c(=O)n1C1CCC(=O)NC1=O` (stereo not shown) [MA10-086, N1,N9-bis(3-(2,6-Dioxopiperidin-3-yl)-2-methyl-4-oxo-3,4-dihydroquinazolin-5-yl)nonanediamide]: 71% and 138%. As to `Cc1nc2cccc(NCc3cccc(CNc4cccc5nc(C)n(C6CCC(=O)NC6=O)c(=O)c45)n3)c2c(=O)n1C1CCC(=O)NC1=O` (stereo not shown) [MA10-126, 3,3′-(((Pyridine-2,6-diylbis(methylene))bis(azanediyl))bis(2-methyl-4-oxoquinazoline-5,3(4H)-diyl))bis(piperidine-2,6-dione)], under “10uM”, the remaining activity at 10 µM is 61.1%. For the same molecule, the remaining activity at 0.01 µM (10nM, human T cells, 24 hours) turned out to be 54.2%. The corresponding values for `O=C1CCC(N2Cc3c(CCCCCC(=O)Nc4cccc5c4CN(C4CCC(=O)NC4=O)C5=O)cccc3C2=O)C(=O)N1` (stereo not shown) [EC2-109, N,6-bis(2-(2,6-Dioxopiperidin-3-yl)-1-oxoisoindolin-4-yl)hexanamide] are 9.84% and 97.5%. On to `O=C1C[C@H](NC(=O)CCCCCCCCC(=O)N[C@H]2CC(=O)NC2=O)C(=O)N1` [XS01-081, N^1,N^10-Bis((S)-2,5-dioxopyrrolidin-3-yl)decanediamide], for which the remaining activity at 10 µM (10uM) was 35%. With `O=C1CCC(N2Cc3c(C#CCCCC(=O)Nc4cccc5c4CN(C4CCC(=O)NC4=O)C5=O)cccc3C2=O)C(=O)N1` (stereo not shown) [EC2-108, N,6-bis(2-(2,6-Dioxopiperidin-3-yl)-1-oxoisoindolin-4-yl)hex-5-ynamide], under “10uM”, the remaining activity at 10 µM amounted to 79.7%. In addition, the remaining activity at 0.01 µM (10nM, human T cells, 24 hours) was 85.6%. The corresponding values for `Cc1nc2c(NCc3ccc(CNc4cccc5c(=O)n(C6CCC(=O)NC6=O)c(C)nc45)cc3)cccc2c(=O)n1C1CCC(=O)NC1=O` (stereo not shown) [XS01-030, 3,3′-(((1,4-Phenylenebis(methylene))bis(azanediyl))bis(2-methyl-4-oxoquinazoline-8,3(4H)-diyl))bis(piperidine-2,6-dione)] are 93% and 12.1%. On to `O=C1CCC(NC(=O)c2cccc(NC(=O)CCCCCCCCC(=O)Nc3cccc(C(=O)NC4CCC(=O)NC4=O)c3)c2)C(=O)N1` (stereo not shown) [XS01-075, N^1,N^10-Bis(3-((2,6-dioxopiperidin-3-yl)carbamoyl)phenyl)decanediamide], for which the remaining activity at 10 µM (10uM) was 63.4%. For the molecule `Cc1nc2c(NC(=O)c3ccc(C(=O)Nc4cccc5c(=O)n(C6CCC(=O)NC6=O)c(C)nc45)cc3)cccc2c(=O)n1C1CCC(=O)NC1=O` (stereo not shown) [XS01-059], the “CRBN Degradation ** (WB)” value is listed as “No Degradation”. For the same molecule, the remaining activity at 10 µM (10uM) worked out at 356%. In addition, the remaining activity at 0.01 µM (10nM, human T cells, 24 hours) was determined as 69.2%.
